Results from PubChem BioAssay (NCI).
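Each compound was tested at five concentrations against cells in 96-well plates for 48 hours. GI50 marks 50% less growth. TGI denotes the concentration required for complete inhibition of growth.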

Legend:
Experiment in all cases: NCI tumour cell line growth inhibition, 48 h
A498 renal = test system: A498 renal
A549 NSCLC = test system: A549 NSCLC
CAKI-1 renal = test system: CAKI-1 renal
CCRF-CEM leukemia = test system: CCRF-CEM leukemia
COLO 205 colon = test system: COLO 205 colon
DLD-1 colon = test system: DLD-1 colon
DMS 114 small cell lung = test system: DMS 114 small cell lung
DMS 273 small cell lung = test system: DMS 273 small cell lung
EKVX NSCLC = test system: EKVX NSCLC
HCC-2998 colon = test system: HCC-2998 colon
HCT-116 colon = test system: HCT-116 colon
HCT-15 colon = test system: HCT-15 colon
HL-60(TB) leukemia = test system: HL-60(TB) leukemia
HOP-18 NSCLC = test system: HOP-18 NSCLC
HOP-62 NSCLC = test system: HOP-62 NSCLC
HOP-92 NSCLC = test system: HOP-92 NSCLC
HT29 colon = test system: HT29 colon
IGROV1 ovarian = test system: IGROV1 ovarian
K-562 leukemia = test system: K-562 leukemia
KM12 colon = test system: KM12 colon
KM20L2 colon = test system: KM20L2 colon
LOX IMVI melanoma = test system: LOX IMVI melanoma
M19-MEL melanoma = test system: M19-MEL melanoma
MALME-3M melanoma = test system: MALME-3M melanoma
MCF7 breast = test system: MCF7 breast
MOLT-4 leukemia = test system: MOLT-4 leukemia
NCI-H226 lung = test system: NCI-H226 lung
NCI-H23 lung = test system: NCI-H23 lung
NCI-H460 lung = test system: NCI-H460 lung
NCI-H522 lung = test system: NCI-H522 lung
NCI/ADR-RES ovarian = test system: NCI/ADR-RES ovarian
OVCAR-3 ovarian = test system: OVCAR-3 ovarian
OVCAR-4 ovarian = test system: OVCAR-4 ovarian
OVCAR-5 ovarian = test system: OVCAR-5 ovarian
OVCAR-8 ovarian = test system: OVCAR-8 ovarian
P388 leukemia = test system: P388 leukemia
P388/ADR leukemia = test system: P388/ADR leukemia
RPMI-8226 leukemia = test system: RPMI-8226 leukemia
RXF 393 renal = test system: RXF 393 renal
SF-268 CNS = test system: SF-268 CNS
SF-295 CNS = test system: SF-295 CNS
SF-539 CNS = test system: SF-539 CNS
SK-MEL-2 melanoma = test system: SK-MEL-2 melanoma
SK-MEL-28 melanoma = test system: SK-MEL-28 melanoma
SK-MEL-5 melanoma = test system: SK-MEL-5 melanoma
SK-OV-3 ovarian = test system: SK-OV-3 ovarian
SN12C renal = test system: SN12C renal
SN12K1 renal = test system: SN12K1 renal
SNB-19 CNS = test system: SNB-19 CNS
SNB-75 CNS = test system: SNB-75 CNS
SNB-78 CNS = test system: SNB-78 CNS
SW-620 colon = test system: SW-620 colon
U251 CNS = test system: U251 CNS
UACC-257 melanoma = test system: UACC-257 melanoma
UACC-62 melanoma = test system: UACC-62 melanoma
UO-31 renal = test system: UO-31 renal

Cc1ncc(CO)c(C=NCCCCCCN=Cc2c(CO)cnc(C)c2[O-])c1[O-].[Cu+2]
TGI (A498 renal): > 100 µM
TGI (A549 NSCLC): > 100 µM
TGI (CAKI-1 renal): > 100 µM
TGI (CCRF-CEM leukemia): > 31.6 µM
TGI (COLO 205 colon): > 100 µM
GI50 (DLD-1 colon): > 82.9 µM
TGI (DLD-1 colon): > 100 µM
GI50 (DMS 114 small cell lung): > 47.7 µM
TGI (DMS 114 small cell lung): > 77.6 µM
GI50 (DMS 273 small cell lung): > 66.9 µM
TGI (DMS 273 small cell lung): > 100 µM
TGI (EKVX NSCLC): > 100 µM
TGI (HCC-2998 colon): > 100 µM
TGI (HCT-116 colon): > 100 µM
TGI (HCT-15 colon): > 100 µM
TGI (HL-60(TB) leukemia): > 100 µM
GI50 (HOP-18 NSCLC): > 100 µM
TGI (HOP-18 NSCLC): > 100 µM
TGI (HOP-62 NSCLC): > 100 µM
TGI (HOP-92 NSCLC): > 87.9 µM
TGI (HT29 colon): > 100 µM
TGI (IGROV1 ovarian): > 100 µM
TGI (K-562 leukemia): > 100 µM
TGI (KM12 colon): > 100 µM
GI50 (KM20L2 colon): > 83.9 µM
TGI (KM20L2 colon): > 100 µM
TGI (LOX IMVI melanoma): > 94.3 µM
GI50 (M19-MEL melanoma): 28.6 µM
TGI (M19-MEL melanoma): > 31.6 µM
TGI (MALME-3M melanoma): > 100 µM
TGI (MCF7 breast): > 100 µM
TGI (MOLT-4 leukemia): > 100 µM
TGI (NCI-H226 lung): > 100 µM
TGI (NCI-H23 lung): > 100 µM
TGI (NCI-H460 lung): > 100 µM
TGI (NCI-H522 lung): > 100 µM
TGI (NCI/ADR-RES ovarian): > 100 µM
TGI (OVCAR-3 ovarian): > 100 µM
TGI (OVCAR-4 ovarian): > 100 µM
TGI (OVCAR-5 ovarian): > 100 µM
TGI (OVCAR-8 ovarian): > 100 µM
GI50 (P388 leukemia): 18.9 µM
TGI (P388 leukemia): 94.2 µM
GI50 (P388/ADR leukemia): 25.7 µM
TGI (P388/ADR leukemia): > 100 µM
TGI (RPMI-8226 leukemia): > 100 µM
TGI (RXF 393 renal): > 100 µM
TGI (SF-268 CNS): > 100 µM
TGI (SF-295 CNS): > 100 µM
TGI (SF-539 CNS): > 100 µM
TGI (SK-MEL-2 melanoma): > 100 µM
TGI (SK-MEL-28 melanoma): > 100 µM
TGI (SK-MEL-5 melanoma): > 79.1 µM
TGI (SK-OV-3 ovarian): > 100 µM
TGI (SN12C renal): > 100 µM
GI50 (SN12K1 renal): > 100 µM
TGI (SN12K1 renal): > 100 µM
TGI (SNB-19 CNS): > 100 µM
TGI (SNB-75 CNS): > 100 µM
GI50 (SNB-78 CNS): 41.3 µM
TGI (SNB-78 CNS): > 100 µM
TGI (SW-620 colon): > 100 µM
TGI (U251 CNS): > 70.9 µM
TGI (UACC-257 melanoma): > 100 µM
TGI (UACC-62 melanoma): > 100 µM
TGI (UO-31 renal): > 100 µM
